The record followed here is PMC9896953, “Structural basis of unisite catalysis of bacterial F0F1-ATPase” (PNAS Nexus, 2022).

Experiment [1] deals with T1, ΔεCT-F0F1 (F0F1 with C-terminal-truncated ε subunit) (Bacillus sp. PS3, UniProt P07677+P09219).
T1 construct: gene atpD; holo complex, ε lacks residues 83-133; derived from pTR19-ASDS, expressed in E. coli, DDM-solubilised, Ni-NTA purified, nucleotide-depleted; PS3 origin is judgement; with ATP synthase gamma chain; ATP synthase epsilon chain; ATP synthase subunit delta; ATP synthase subunit a; ATP synthase subunit b; ATP synthase subunit c
Kind of experiment: cryo-EM structure. It is filed as binding. The conditions noted are these: unisite conditions (substoichiometric ATP with PEP / pyruvate kinase), 25 °C, pH 8.0; catalytic site of closed βTP.

The target in experiment [2] is T2, wt-F0F1 (wild-type F0F1-ATPase / ATP synthase) (Bacillus sp. PS3, UniProt P07677+P07678+P09219).
T2 construct: gene atpD; holo complex α3β3γ1ε1δ1a1b2c10 from pTR19-ASDS, expressed in E. coli DK8, DDM-solubilised, Ni-NTA purified, nucleotide-depleted; with ATP synthase gamma chain; ATP synthase epsilon chain; ATP synthase subunit delta; ATP synthase subunit a; ATP synthase subunit b; ATP synthase subunit c
Kind of experiment: cryo-EM structure. It is filed as binding.

Take `Nc1ncnc2c1ncn2[C@@H]1O[C@H](COP(=O)(O)OP(=O)(O)O)[C@@H](O)[C@H]1O` [ADP]: the cryo-EM structure result in experiment [1] is “revealed a nucleotide density due to ADP at the catalytic site in βTP”; in experiment [2] (sample exposed to 4 mM ATPγS, catalytic βDP (ε down), βTP and βDP (ε up)) it was ““closed in βTP with ADP,” and “open in βDP with ADP””. Regarding `Nc1ncnc2c1ncn2[C@@H]1O[C@H](COP(=O)(O)OP(=O)(O)OP(O)(O)=S)[C@@H](O)[C@H]1O` [ATPγS], the cryo-EM structure result in experiment [2] (4 mM ATPγS, ε-down form: catalytic βE and βTP and noncatalytic α sites, also bound in the retracted ε subunit (second site), ε-up form: βE) is ““open in βE with ATPγS,” “closed in βTP with ATPγS,” and “closed in βDP with ADP”.
